{"source": "patent US12195804B2", "about": "“Treatment of squamous cell carcinoma” (Board of Regents, The University of Texas System, priority 2018, dated 2025)", "key": {"[1]": {"tested_on": "HN31 and UM22A orthotopic xenografts", "assay": "Orthotopic tongue xenograft models of NOTCH1MUT HNSCC", "type": "in vivo, athymic nude mice", "method": "(§1) FIGS. 8A-8D: PI3K/mTOR pathway inhibitors cause apoptosis and reduce tumor size in NOTCH1^MUT head and neck squamous cell carcinoma (HNSCC) in vivo. FIGS. 8A and 8B. The NOTCH1^MUT cell lines HN31 (FIG. 8A) and UMSCC22A (UM22A; FIG. 8B) were injected subcutaneously (SQ) into athymic nude mice. After tumors reached 150 mm^3, the mice were randomized to receive either vehicle control (2-hydroxypropyl-β-cyclodextrin) or 1 mg/kg GSK2126458 (GSK212) by oral gavage daily for 28 days. Tumor sizes were measured and tumor volumes were calculated at the indicated times, and the percent change in tumor volume at the end of therapy was calculated using the formula (final tumor volume−initial tumor volume/initial tumor volume)×100%. The percentages of TUNEL-positive cells were calculated from image quantification at 40× magnification. FIGS. 8C and 8D. HN31 (FIG. 8C) and UM22A (FIG. 8D) were implanted orthotopically (OT) into the anterior tongues of athymic nude mice. […] Tumor sizes were measured, and tumor volumes and percent changes in tumor volumes were calculated as above. […] The percentages of TUNEL-positive cells were calculated as described above. Data are means±standard deviations from 5 mice per group; p values were calculated using an unpaired t-test with the Welch correction. […]"}, "[2]": {"tested_on": "HN31 and UMSCC22A subcutaneous xenografts", "assay": "Subcutaneous xenograft models of NOTCH1MUT HNSCC", "type": "in vivo, athymic nude mice", "details": "1 mg/kg oral gavage daily 28 days", "method": "as §1"}, "HNSCC cell lines [3]": {"tested_on": "HNSCC cell lines", "assay": "CellTiter-Glo cell viability assay", "type": "cell-based, human", "details": "0-200 nM, 72 hours", "method": "Cell viability assay. […] A CellTiter-Glo luminescent cell viability assay (Promega, Madison, WI) was performed as described previously (Castel et al., 2016; Muellner et al., 2011). Inhibitory concentration (ICs) and area under the curve (AUC) values were calculated using the drexplorer R package with a best-fit dose-response model (Zumsteg et al., 2016). The combination indices were calculated using the Chou-Talalay method (Cal et al., 2017) in CalcuSyn (Biosoft, Cambridge, UK). We tested the reproducibility and robustness of the data generated using three quality control parameters as described previously (Bohnacker et al., 2017). These parameters were the concordance correlation coefficient, location shift, and maximum standard deviation between two biological replicates for three technical and two biological replicates. Based on heuristics from our previous screening studies in lung cancer (Bohnacker et al., 2017), the cut-offs for reproducibility were a concordance correlation coefficient greater than 0.8, a location shift less than 0.9, and a standard deviation less than 0.23 based on the normal mixture fit model. Experiments not satisfying these criteria were repeated. The replicate with the smallest experimental variation measured by the median of standard deviation was chosen as a representative of the replicates, and its IC values served as the final values for subsequent analysis.\nCell lines were classified as sensitive based on IC70 values less than the peak plasma concentration for each drug. To determine if cross-comparison of the PI3K/mTOR inhibitors as a class was feasible, their drug sensitivity patterns were compared with those of three cell cycle kinase inhibitors tested previously (Zhang et al., 2017). The PI3K/mTOR pathway inhibitors clustered separately from the cell cycle inhibitors (FIG. 12C)."}, "HNSCC cell lines [4]": {"tested_on": "HNSCC cell lines", "assay": "Cell cycle analysis (BrdU/7-AAD flow cytometry)", "type": "cell-based, human", "details": "50 nM", "method": "FIGS. 16A-16C: Effects of PI3K/mTOR signaling inhibition on the survival of NOTCH1MUT and NOTCH1WT head and neck squamous cell carcinoma (HNSCC) cell lines in vitro. FIG. 16A. The Annexin V/propidium iodide assay was used to assess apoptosis in HNSCC cells that had the indicated NOTCH1 and PIK3CA mutations and were treated with 500 nM BAY806946. Values are the means {plus minus} standard deviations of three independent experiments. […], unpaired two-tailed Student t-test. FIG. 16B. NOTCH1MUT lines (red text) and NOTCH1WT lines (black text) were treated with increasing concentrations of BAY806946 for 3 hours, and then Western blotting was used to assess levels of p-AKT (S473). FIG. 16C. NOTCH1WT lines (black text), NOTCH1MUT lines (red text), and PIK3CAMUT lines (blue text) were treated with 50 nM GSK2126458 (GSK212) and then pulse-labeled with BrDU and counterstained with 7-AAD for flow cytometry.\nApoptosis and cell cycle assays. […] Data were acquired with a three-laser, 10-color Gallios flow cytometer (Beckman Coulter, Brea, CA) and analyzed using Kaluza software (Beckman Coulter, Brea, CA). […]"}}}
{"compound": "COc1ncc(-c2ccc3nccc(-c4ccnnc4)c3c2)cc1NS(=O)(=O)c1ccc(F)cc1F", "note": "[GSK2126458]", "values": [{"measurement": "tumor size compared with vehicle", "setting": "[1]; 3 mg/kg oral gavage daily 28 days", "value": "significantly reduced tumor size"}, {"measurement": "apoptosis in tumors (TUNEL staining)", "setting": "[1]; 3 mg/kg oral gavage, end of treatment", "value": "underwent apoptosis"}, {"measurement": "apoptosis in tumors (TUNEL staining)", "setting": "[2]", "value": "significant apoptosis"}, {"measurement": "tumor volume", "setting": "[2]", "value": "regressed"}, {"measurement": "cell viability, NOTCH1MUT and NOTCH1WT cell lines", "setting": "HNSCC cell lines [3]", "value": "differential effects"}, {"measurement": "sub-G0 fraction", "setting": "HNSCC cell lines [4]", "value": "increased the sub-G0 fraction in only NOTCH1^MUT lines"}, {"measurement": "G1 arrest", "setting": "HNSCC cell lines [4]; all cell lines", "value": "induced G1 arrest in all cell lines"}]}
